Assay results taken from patent publication US20250092383A1, “COMPOUNDS AND METHODS FOR FBXO22-MEDIATED PROTEIN DEGRADATION” (Northwestern University, priority 2023, published 2025).

How the values were obtained:
FKBP12 = FKBP12 (Homo sapiens, UniProt P62942); experiment: Global proteomic analysis in HEK293T cells expressing FBXO22 wildtype or C227AC228A; assay type: cell-based; design: expressed in transfected cells; host or cells: HEK293T; conditions: 0.5 μM, 24 hours
Text: (§1) FIGS. 3A-3H show FBXO22 C227 and C228 are involved in 22-SLF-mediated degradation of FKBP12. […] Among 5,650 quantified IA-DTB-modified peptides, four cysteines were identified on FBXO22 (C83, C117, C228, and C365). […] Data are presented as the mean values (n=2 biological independent samples for DMSO treatment; n=3 biological independent samples for 22-SLF Treatment). […] The bag graph represents quantification of the FLAG-FKBP12/HSP90 protein content. Data are presented as mean values (n=2 biological independent samples). […] The bar graph represents quantification of the FLAG-FKBP12/HSP90 protein content. Data are presented as the mean values (n=2 biological independent samples).
FIGS. 9A-9B show FBXO22 C227 and C228 are involved in 22-SLF-mediated degradation of FKBP12.
Global proteomic analysis in FBXO22 wildtype- and C227AC228A-expressing HEK293T cells was conducted, comparing the effects of 22-SLF treatment on the expression level of FKBP12. […] Using this predicted human FBXO22 structure, a model structure of the interaction with the electrophilic portion of 22-SLF was conducted.

FKBP12 (mouse FBXO22) [1] = biological target: T1, FKBP12 (mouse FBXO22) (UniProt P62942+Q78JE5, C226A/C227A); experiment: FKBP12 degradation in HEK293T cells expressing mouse FBXO22; assay type: cell-based; conditions: HEK293T cells
T1 construct: expressed in transfected cells; host or cells: HEK293T
Text: as §1
(§2) Intriguingly, the peptide sequence containing the two consecutive cysteines (C227 and C228) is identical between human and mouse (FIG. 3f). To explore whether mouse FBXO22 can facilitate 22-SLF-induced FKBP12 degradation and if the conserved cysteines (C226 and C227 in mouse FBXO22) are pivotal, HEK293T cells expressing mouse FBXO22 wildtype, C226A, C227A, and C226AC227A, were generated.

FKBP12 (mouse FBXO22) [2] = experiment: as above; assay type: cell-based; conditions: HEK293T cells
Text: as §1, §2

FKBP12 (mouse FBXO22) [3] = biological target: T2, FKBP12 (mouse FBXO22) (UniProt P62942+Q78JE5); experiment: as above; assay type: cell-based; conditions: HEK293T cells expressing mouse FBXO22 wildtype
T2 construct: expressed in transfected cells; host or cells: HEK293T
Text: as §1, §2

FBXO22 = biological target: T3, FBXO22 (Homo sapiens, UniProt Q8NEZ5); experiment: Competitive cysteine-directed activity-based protein profiling (ABPP); assay type: binding
T3 construct: expressed in transfected cells; host or cells: HEK293T
T3 sequence (Q8NEZ5 1-403): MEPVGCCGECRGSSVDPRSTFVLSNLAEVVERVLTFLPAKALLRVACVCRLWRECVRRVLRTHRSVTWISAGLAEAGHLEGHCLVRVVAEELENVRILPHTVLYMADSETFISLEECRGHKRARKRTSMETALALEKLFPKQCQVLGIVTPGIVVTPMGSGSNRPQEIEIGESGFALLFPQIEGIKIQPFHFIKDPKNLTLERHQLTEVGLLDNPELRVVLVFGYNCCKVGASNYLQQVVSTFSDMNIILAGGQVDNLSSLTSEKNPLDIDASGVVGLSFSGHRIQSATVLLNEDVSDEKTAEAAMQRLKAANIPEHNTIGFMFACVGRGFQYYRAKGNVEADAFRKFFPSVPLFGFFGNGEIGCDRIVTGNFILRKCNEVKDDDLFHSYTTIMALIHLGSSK
Text: as §1
To identify the cysteine residue(s) in FBXO22 engaged with 22-SLF, HA-FBXO22-expressing HEK293T cells were treated with either DMSO or 22-SLF (2 μM, 2 hours). Using competitive cysteine-directed activity-based protein profiling (ABPP), a chemical proteomics for the measurement of target engagement, the degree of blockade of iodoacetamide-desthiobiotin (IA-DTB)-modified cysteines on FBXO22 was quantified. From a pool of 5,650 quantified IA-DTB-modified peptides, four cysteines on FBXO22 (C83, C117, C228, and C365) (FIG. 3a) were identified, with approximately 20% of FBXO22 C228 being blocked by 22-SLF treatment (FIG. 3b), indicating the potential interaction with this cysteine by 22-SLF. […]

Sequence of FKBP12 (P62942 whole entry): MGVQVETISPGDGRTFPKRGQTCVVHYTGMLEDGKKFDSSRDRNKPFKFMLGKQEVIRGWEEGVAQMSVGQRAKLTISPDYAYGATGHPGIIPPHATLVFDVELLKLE
T1 sequence (P62942 2-108): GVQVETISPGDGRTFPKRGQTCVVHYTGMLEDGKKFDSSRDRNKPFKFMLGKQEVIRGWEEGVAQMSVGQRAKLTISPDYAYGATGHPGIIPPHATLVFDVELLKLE
T1 sequence (Q78JE5 whole entry C226A/C227A): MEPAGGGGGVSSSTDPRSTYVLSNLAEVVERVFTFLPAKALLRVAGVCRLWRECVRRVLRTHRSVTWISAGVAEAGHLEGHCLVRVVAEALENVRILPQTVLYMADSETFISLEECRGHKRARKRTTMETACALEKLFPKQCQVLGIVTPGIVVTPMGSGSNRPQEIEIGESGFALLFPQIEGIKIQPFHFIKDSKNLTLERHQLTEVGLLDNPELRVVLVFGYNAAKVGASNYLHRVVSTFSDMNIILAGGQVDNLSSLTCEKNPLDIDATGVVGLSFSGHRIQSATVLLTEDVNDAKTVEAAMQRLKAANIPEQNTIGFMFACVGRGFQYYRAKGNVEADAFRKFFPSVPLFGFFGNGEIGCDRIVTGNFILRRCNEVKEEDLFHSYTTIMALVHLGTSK
T2 sequence (P62942 2-108): as the sequence (P62942 2-108) above
T2 sequence (Q78JE5 whole entry): as the sequence (Q78JE5 whole entry C226A/C227A) above, with A226C, A227C counted along it
T2 sequence (P63208 whole entry partner): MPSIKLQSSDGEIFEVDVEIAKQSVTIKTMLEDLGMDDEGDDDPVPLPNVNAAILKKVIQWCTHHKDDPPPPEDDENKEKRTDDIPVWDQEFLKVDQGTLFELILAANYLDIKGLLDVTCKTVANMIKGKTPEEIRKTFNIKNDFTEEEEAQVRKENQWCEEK

## CCC(C)(C)C(=O)C(=O)N1CCCC[C@H]1C(=O)O[C@H](CCc1ccc(OC)c(OC)c1)c1cccc(OCC(=O)NCCCOCCOCCOCCCN(C(=O)CCl)C(C(=O)NCc2ccccc2)c2nc3ccccc3s2)c1 (stereo partly shown) [22-SLF]
FKBP12; HEK293T HA-FBXO22 C227AC228A
  FKBP12 degradation in global proteomics, FBXO22 C227AC228A cells: no degradation observed
FKBP12; HEK293T HA-FBXO22 wildtype
  Proteins degraded among 7,936 quantified proteins, FBXO22 wildtype cells: FKBP12 was the only protein degraded
FKBP12 (mouse FBXO22) [1]
  FKBP12 degradation, mouse FBXO22 double mutant C226AC227A: fully blocked the degradation
FKBP12 (mouse FBXO22) [2]
  FKBP12 degradation, mouse FBXO22 single mutants C226A and C227A: partially impeded degradation
FKBP12 (mouse FBXO22) [3]
  FKBP12 degradation, mouse FBXO22 wildtype: induced FBKP12 degradation
FBXO22; 2 μM, 2 hours, HA-FBXO22-expressing HEK293T cells
  Blockade of IA-DTB-modified FBXO22 C228: approximately 20%
FBXO22; FIG. 3b
  Engagement of FBXO22 C227: approximately 20%
